According to patent US20260193268A1, “TRICYCLIC PI3Ka INHIBITOR, PREPARATION METHOD THEREFOR, AND PHARMACEUTICAL USE THEREOF” (WIGEN BIOMEDICINE TECHNOLOGY (SHANGHAI) CO., LTD., priority 2022, published 2026):
Like-named read-outs stand apart in the source and are kept apart here.

Key:
[1] = target: PI3Kα (Homo sapiens, UniProt P42336); assay: ADP-Glo kinase assay, in vitro inhibition of PI3Kα kinase activity; assay type: biochemical; conditions: 25 μM ATP, PIP2 50 μg/mL, room temperature 1 h, read-out: Inhibitory activity against PI3K kinases, PI3Kα (IC50)
Description: (§1) Biological Example 1. Assay for In Vitro Inhibition of PI3Kα, PI3Kβ, PI3Kγ, and PI3Kδ Kinase Activity by Compounds of the Present Disclosure
(§2) The experiment was performed using the ADP-Glo Kinase Assay kit according to the instructions. The following buffer solution was prepared: 50 mM HEPES, pH 7.5, 3 mM MgCl2, 1 mM EGTA, 100 mM NaCl, 0.03% CHAPS, 2 mM DTT. Test compound samples were dissolved in DMSO, diluted 3-fold at a starting concentration, e.g., 10 μM, and added to the screening system. A DMSO control and a kinase-free control were set simultaneously. The optimal concentrations of PI3Kα, PI3Kδ, PI3Kβ, and PI3Kγ enzymes, substrate (PIP2), and ATP were prepared with buffer. The enzyme reaction system contained: buffer, 25 μM ATP, kinase substrate (PIP2, 50 μg/mL), and kinases PI3Kα (0.15 μg/mL), PI3Kδ (1.2 μg/mL), PI3Kβ (0.3 μg/mL), PI3Kγ (2.5 μg/mL), and the like. The reaction system was reacted at room temperature for 1 h. The reaction was terminated by adding a termination reagent (ADP-Glo reagent, 5 μL), and the ADP content in the system was detected using a detection reagent (Kinase Detection Reagent, 10 μL). Signal data were collected using an Envision instrument. The inhibition rate was calculated according to the following equation: % inhibition=(DMSO control signal value−sample signal value)/(DMSO control signal value−kinase-free control signal value). The IC50 values were obtained by fitting a curve using the equation: Y=Bottom+(Top−Bottom)/(1+(IC50/X)^HillSlope).

[2] = target: PI3Kβ (Homo sapiens, UniProt P42338); assay: ADP-Glo kinase assay, in vitro inhibition of PI3Kβ kinase activity; assay type: biochemical; conditions: 25 μM ATP, PIP2 50 μg/mL, room temperature 1 h, read-out: Inhibitory activity against PI3K kinases, PI3Kβ (IC50)
Description: as §1, §2

[3] = target: PI3Kγ (Homo sapiens, UniProt P48736); assay: ADP-Glo kinase assay, in vitro inhibition of PI3Kγ kinase activity; assay type: biochemical; conditions: 25 μM ATP, PIP2 50 μg/mL, room temperature 1 h, read-out: Inhibitory activity against PI3K kinases, PI3Kγ (IC50)
Description: as §1, §2

[4] = target: PI3Kδ (Homo sapiens, UniProt O00329); assay: ADP-Glo kinase assay, in vitro inhibition of PI3Kδ kinase activity; assay type: biochemical; conditions: 25 μM ATP, PIP2 50 μg/mL, room temperature 1 h, read-out: Inhibitory activity against PI3K kinases, PI3Kδ (IC50)
Description: as §1, §2

[5] = tested on: HCC1954 cells (with PI3Kα H1047R mutation); assay: In vitro inhibition of HCC1954 cell proliferation (CellTiter-Lumi); assay type: cell-based; conditions: HCC1954 cells, 144 h, CellTiter-Lumi
Description: Assay for In Vitro Inhibition of HCC1954 Cell Proliferation by Compounds of the Present Disclosure
The growth of the cells was evaluated, and the IC50 for the inhibition of cell growth by the compounds was calculated.

[6] = tested on: MCF-7 cells (with PI3Kα E545K mutation); assay: In vitro inhibition of MCF-7 cell proliferation (CellTiter-Lumi); assay type: cell-based; conditions: Homo sapiens, MCF7, 144 h
Outline: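 Growth IC50 derived from ATP luminescence (CellTiter-Lumi) after 144 h exposure of MCF-7 cells carrying PI3Kα E545K, plated 2000 cells/well and dosed with serial dilutions one day after seeding.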

[7] = Homo sapiens, HCC1954, 144 h, numeric values, read-out: Inhibitory activity against HCC1954 cells (IC50)
[8] = numeric values, read-out: Inhibitory activity against MCF-7 cells (IC50)
[9] = Homo sapiens, HCC1954, 144 h, class symbols, read-out: Inhibitory activity against HCC1954 cells (IC50), class symbols
[10] = class symbols, read-out: Inhibitory activity against MCF-7 cells (IC50), class symbols

PI3Kβ, sequence (P42338 whole entry, species assumed): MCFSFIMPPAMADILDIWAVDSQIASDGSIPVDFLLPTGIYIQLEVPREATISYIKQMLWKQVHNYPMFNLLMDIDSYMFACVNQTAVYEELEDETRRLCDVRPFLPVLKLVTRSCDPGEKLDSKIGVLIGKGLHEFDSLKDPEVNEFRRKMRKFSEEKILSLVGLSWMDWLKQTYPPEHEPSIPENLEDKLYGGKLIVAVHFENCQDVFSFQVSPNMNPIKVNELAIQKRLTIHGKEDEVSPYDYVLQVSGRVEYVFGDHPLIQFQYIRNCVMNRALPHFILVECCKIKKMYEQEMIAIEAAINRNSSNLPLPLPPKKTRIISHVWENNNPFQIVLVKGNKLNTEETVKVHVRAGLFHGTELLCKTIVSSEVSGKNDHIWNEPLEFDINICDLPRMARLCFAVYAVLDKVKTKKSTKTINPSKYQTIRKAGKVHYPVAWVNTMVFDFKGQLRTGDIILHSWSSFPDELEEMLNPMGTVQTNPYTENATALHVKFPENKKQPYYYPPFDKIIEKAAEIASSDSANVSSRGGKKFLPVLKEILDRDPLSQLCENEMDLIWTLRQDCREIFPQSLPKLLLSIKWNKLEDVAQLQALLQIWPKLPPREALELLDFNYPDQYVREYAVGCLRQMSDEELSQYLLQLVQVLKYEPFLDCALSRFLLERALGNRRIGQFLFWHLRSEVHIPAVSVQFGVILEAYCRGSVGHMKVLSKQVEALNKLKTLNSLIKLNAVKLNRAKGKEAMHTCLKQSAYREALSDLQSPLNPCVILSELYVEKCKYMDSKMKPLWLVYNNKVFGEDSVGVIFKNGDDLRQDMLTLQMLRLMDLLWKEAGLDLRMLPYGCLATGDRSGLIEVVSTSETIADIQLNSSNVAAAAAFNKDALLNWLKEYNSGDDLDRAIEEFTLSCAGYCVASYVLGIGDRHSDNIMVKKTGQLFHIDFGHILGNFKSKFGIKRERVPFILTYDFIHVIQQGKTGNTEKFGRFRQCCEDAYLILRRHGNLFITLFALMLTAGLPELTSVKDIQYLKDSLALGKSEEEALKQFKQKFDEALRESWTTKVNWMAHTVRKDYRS
PI3Kβ, sequence (P27986 whole entry partner, species assumed): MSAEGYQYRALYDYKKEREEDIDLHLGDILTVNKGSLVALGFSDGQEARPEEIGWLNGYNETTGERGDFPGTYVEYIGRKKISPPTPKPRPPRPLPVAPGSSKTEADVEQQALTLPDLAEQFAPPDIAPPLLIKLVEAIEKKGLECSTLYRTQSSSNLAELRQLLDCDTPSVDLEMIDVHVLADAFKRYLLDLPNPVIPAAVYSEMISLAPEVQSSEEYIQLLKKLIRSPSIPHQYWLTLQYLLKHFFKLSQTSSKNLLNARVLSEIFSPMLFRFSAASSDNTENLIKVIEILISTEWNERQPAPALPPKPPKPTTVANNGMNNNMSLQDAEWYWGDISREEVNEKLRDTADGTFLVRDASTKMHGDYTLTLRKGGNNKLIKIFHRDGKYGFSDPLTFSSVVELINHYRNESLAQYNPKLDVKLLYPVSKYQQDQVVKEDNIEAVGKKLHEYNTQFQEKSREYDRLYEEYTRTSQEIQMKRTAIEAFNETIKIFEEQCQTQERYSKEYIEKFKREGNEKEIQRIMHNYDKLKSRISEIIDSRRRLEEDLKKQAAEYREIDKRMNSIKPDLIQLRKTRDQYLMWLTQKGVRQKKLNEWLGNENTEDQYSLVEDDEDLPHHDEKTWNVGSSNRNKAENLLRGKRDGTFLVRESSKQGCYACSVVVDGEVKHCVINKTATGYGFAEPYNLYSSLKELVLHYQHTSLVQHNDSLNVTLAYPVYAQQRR
PI3Kδ, sequence (O00329 whole entry, species assumed): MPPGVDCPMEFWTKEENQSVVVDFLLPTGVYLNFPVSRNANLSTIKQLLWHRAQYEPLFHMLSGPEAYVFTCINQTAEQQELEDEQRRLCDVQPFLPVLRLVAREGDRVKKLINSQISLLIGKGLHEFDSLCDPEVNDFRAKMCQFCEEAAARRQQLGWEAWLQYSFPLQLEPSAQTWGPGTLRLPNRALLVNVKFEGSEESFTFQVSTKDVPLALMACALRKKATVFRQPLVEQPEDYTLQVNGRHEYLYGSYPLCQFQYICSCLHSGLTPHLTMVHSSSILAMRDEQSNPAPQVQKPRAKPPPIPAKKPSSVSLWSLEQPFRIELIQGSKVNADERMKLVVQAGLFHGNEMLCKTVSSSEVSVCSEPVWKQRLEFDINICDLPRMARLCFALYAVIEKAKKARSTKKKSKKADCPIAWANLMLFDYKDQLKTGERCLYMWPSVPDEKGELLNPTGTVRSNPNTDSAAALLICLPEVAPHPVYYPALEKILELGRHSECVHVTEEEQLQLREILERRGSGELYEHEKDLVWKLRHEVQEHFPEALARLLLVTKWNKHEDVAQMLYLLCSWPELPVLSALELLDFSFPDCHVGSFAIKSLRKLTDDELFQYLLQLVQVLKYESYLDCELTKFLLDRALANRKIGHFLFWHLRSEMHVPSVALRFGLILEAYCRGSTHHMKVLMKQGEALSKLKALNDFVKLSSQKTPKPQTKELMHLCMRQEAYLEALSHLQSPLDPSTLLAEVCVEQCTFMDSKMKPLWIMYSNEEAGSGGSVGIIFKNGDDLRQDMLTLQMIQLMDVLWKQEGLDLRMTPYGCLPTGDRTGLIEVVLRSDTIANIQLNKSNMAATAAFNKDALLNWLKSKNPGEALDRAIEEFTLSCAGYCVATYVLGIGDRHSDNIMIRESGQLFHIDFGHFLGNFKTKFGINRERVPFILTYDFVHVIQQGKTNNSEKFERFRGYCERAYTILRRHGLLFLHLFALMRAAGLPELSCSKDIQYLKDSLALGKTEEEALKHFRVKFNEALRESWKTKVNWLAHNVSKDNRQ
PI3Kδ, sequence (P27986 whole entry partner, species assumed): as the sequence (P27986 whole entry partner, species assumed) above
PI3Kγ, sequence (P48736 whole entry, species assumed): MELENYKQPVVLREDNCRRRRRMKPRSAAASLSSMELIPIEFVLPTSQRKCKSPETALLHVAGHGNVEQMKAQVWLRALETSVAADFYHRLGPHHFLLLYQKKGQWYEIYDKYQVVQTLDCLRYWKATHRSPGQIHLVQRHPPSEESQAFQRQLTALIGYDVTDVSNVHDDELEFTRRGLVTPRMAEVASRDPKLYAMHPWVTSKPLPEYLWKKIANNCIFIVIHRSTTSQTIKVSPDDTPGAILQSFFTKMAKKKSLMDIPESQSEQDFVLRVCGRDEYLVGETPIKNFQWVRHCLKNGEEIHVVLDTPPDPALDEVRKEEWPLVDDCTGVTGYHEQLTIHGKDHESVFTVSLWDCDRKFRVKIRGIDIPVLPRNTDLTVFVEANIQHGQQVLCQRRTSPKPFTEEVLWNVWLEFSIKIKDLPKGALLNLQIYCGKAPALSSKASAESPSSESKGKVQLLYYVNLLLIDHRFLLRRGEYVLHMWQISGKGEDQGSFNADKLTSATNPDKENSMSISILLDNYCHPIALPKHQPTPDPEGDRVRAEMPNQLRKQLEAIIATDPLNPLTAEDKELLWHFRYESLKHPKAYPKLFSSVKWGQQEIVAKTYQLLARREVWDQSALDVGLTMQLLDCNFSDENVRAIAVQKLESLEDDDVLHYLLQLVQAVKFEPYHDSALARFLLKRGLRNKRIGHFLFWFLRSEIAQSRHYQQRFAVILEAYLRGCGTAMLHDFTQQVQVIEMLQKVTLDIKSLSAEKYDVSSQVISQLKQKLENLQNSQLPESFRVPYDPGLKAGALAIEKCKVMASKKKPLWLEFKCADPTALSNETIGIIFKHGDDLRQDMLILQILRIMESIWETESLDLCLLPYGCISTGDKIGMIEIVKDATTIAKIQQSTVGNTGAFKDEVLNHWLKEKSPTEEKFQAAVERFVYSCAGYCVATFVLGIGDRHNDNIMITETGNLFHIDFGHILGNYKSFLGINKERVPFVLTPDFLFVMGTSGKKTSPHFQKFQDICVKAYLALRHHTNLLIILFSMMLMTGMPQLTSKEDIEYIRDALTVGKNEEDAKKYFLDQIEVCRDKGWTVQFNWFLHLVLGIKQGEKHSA
PI3Kα, sequence (P42336 whole entry): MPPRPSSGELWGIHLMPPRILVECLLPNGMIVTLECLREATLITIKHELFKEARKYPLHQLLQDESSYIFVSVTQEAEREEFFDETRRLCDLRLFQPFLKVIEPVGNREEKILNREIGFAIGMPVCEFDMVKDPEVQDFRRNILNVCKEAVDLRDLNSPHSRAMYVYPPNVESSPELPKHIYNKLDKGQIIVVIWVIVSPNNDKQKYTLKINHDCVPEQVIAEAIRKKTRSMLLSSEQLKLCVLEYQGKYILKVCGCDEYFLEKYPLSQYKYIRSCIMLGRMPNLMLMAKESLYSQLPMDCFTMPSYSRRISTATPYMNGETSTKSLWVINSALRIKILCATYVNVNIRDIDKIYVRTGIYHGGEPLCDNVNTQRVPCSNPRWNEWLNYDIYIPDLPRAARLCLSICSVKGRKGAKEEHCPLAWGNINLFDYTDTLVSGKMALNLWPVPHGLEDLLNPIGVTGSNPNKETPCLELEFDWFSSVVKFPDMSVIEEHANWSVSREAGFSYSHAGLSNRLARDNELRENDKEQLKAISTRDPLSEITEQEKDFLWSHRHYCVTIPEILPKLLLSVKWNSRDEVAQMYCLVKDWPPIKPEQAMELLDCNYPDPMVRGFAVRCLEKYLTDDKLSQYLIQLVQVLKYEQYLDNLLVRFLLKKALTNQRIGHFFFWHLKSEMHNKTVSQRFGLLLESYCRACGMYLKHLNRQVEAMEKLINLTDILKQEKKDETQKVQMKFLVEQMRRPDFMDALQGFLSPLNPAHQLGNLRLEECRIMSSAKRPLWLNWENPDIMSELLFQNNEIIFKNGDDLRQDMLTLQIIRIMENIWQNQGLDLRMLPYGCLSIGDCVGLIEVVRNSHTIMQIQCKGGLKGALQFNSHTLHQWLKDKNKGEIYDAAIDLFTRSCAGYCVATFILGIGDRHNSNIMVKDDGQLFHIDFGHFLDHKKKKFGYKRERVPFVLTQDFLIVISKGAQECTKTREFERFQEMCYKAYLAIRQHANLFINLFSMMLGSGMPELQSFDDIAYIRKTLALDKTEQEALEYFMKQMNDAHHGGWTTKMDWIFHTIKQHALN
PI3Kα, sequence (P27986 whole entry partner): as the sequence (P27986 whole entry partner, species assumed) above

Compound | IC50 [1] [nM] | IC50 [2] [nM] | IC50 [3] [nM] | IC50 [4] [nM] | IC50 [5, 7] [nM] | IC50 [6, 8] [nM] | IC50 [5, 9] [nM] | IC50 [6, 10] [nM] | IC50 ([5]; numeric values, read-out: Inhibitory activity against HCC1954 cells (IC50)) [nM]
C=CC(=O)Nc1ccc(N2CC[C@H](N3CCN(c4ccc5c(c4)-c4nc(N6C(=O)OC[C@H]6C(F)F)cn4CCO5)CC3)C2)cc1 (single isomer, unassigned) [Compound 29] | 1.18 | 1260 | 38 | 49 | – | – | – | – | –
C=CC(=O)Nc1ccc(CC(=O)N2CCN(c3ccc4c(c3)-c3nc(N5C(=O)OC[C@H]5C(F)F)cn3CCO4)CC2)cc1 [Compound 1] | 5.4 | 317 | 21 | < 8 | 103 | 18 | – | – | –
C=CC(=O)N1CC[C@@H](C(=O)NCC(=O)N2CCN(c3ccc4c(c3)-c3nc(N5C(=O)OC[C@H]5C(F)F)cn3CCO4)CC2)C1 [Compound 2] | 7.3 | 513 | 44 | 20 | 97 | 28 | – | – | –
C=CC(=O)Nc1ccc(N2CC(CN3CCN(c4ccc5c(c4)-c4nc(N6C(=O)OC[C@H]6C(F)F)cn4CCO5)CC3)C2)cc1 [Compound 4] | 7.4 | 315 | 98 | 43 | 65 | 26 | – | – | –
C=CC(=O)N1CCC(N2CC(CN3CCN(c4ccc5c(c4)-c4nc(N6C(=O)OC[C@H]6C(F)F)cn4CCO5)CC3)C2)CC1 [Compound 5] | 50 | 314 | 1200 | 117 | 670 | 35 | – | – | –
C=CC(=O)N1CC(N2CCC(CN3CCN(c4ccc5c(c4)-c4nc(N6C(=O)OC[C@H]6C(F)F)cn4CCO5)CC3)CC2)C1 [Compound 17] | 11 | 314 | 317 | 92 | 81 | 16 | – | – | –
C=CC(=O)Nc1ccc(N2CC(N3CCN(c4ccc5c(c4)-c4nc(N6C(=O)OC[C@H]6C(F)F)cn4CCO5)CC3)C2)cc1 [Compound 27] | 0.21 | 2920 | 26 | 76 | 9 | 0.36 | – | – | –
CN(C1COC1)C(C)(C)/C=C(\C#N)C(=O)Nc1ccc(N2CC(N3CCN(c4ccc5c(c4)-c4nc(N6C(=O)OC[C@H]6C(F)F)cn4CCO5)CC3)C2)cc1 [Compound 95] | 0.16 | 1090 | 42 | 103 | 68 | 38 | – | – | –
CN(C)C/C=C/C(=O)Nc1ccc(N2CC(N3CCN(c4ccc5c(c4)-c4nc(N6C(=O)OC[C@H]6C(F)F)cn4CCO5)CC3)C2)cc1 [Compound 96] | 1.33 | 3160 | 223 | 475 | 26 | 2.5 | – | – | –
N#CC(=CC1(N)CCC1)C(=O)Nc1ccc(N2CC(N3CCN(c4ccc5c(c4)-c4nc(N6C(=O)OC[C@H]6C(F)F)cn4CCO5)CC3)C2)cc1 [Compound 391] | – | – | – | – | – | – | < 50 | < 50 | –
CNC1(C=C(C#N)C(=O)Nc2ccc(N3CC(N4CCN(c5ccc6c(c5)-c5nc(N7C(=O)OC[C@H]7C(F)F)cn5CCO6)CC4)C3)cc2)CCC1 [Compound 392] | – | – | – | – | – | – | < 50 | < 50 | –
N#CC(=CC1CCCC1)C(=O)Nc1ccc(N2CC(N3CCN(c4ccc5c(c4)-c4nc(N6C(=O)OC[C@H]6C(F)F)cn4CCO5)CC3)C2)cc1 [Compound 393] | – | – | – | – | – | – | < 50 | < 50 | –
N#CC(=Cc1ccccc1)C(=O)Nc1ccc(N2CC(N3CCN(c4ccc5c(c4)-c4nc(N6C(=O)OC[C@H]6C(F)F)cn4CCO5)CC3)C2)cc1 [Compound 394] | – | – | – | – | – | – | < 50 | < 50 | –
CCC(N)(C=C(C#N)C(=O)Nc1ccc(N2CC(N3CCN(c4ccc5c(c4)-c4nc(N6C(=O)OC[C@H]6C(F)F)cn4CCO5)CC3)C2)cc1)CC [Compound 395] | – | – | – | – | – | – | < 50 | < 50 | –
C[C@H](Nc1ccc2c(c1)OCCn1cc(N3C(=O)OC[C@H]3C(F)F)nc1-2)C(N)=O [GDC0077, GDC-0077, reference compound] | – | – | – | – | – | 55 | – | – | 82
